Key:
Type in all cases: physicochemical
[1] = Order parameter (S) of the dye in liquid crystal material; conditions: for Order Parameter (S): liquid crystal material E 43, 20° C.
Procedure: (§1) (i) Order parameters, solubilities and stabilities reported in Tables I to V were measured in the liquid crystal material, E 43, which is referred to as Host B in UK Specification No. 2081736A and is available from BDH Ltd of Poole, Dorset. Measurements were made at 20° C. unless otherwise indicated.
(§2) (iii) The liquid crystal materials in Table V are:
(§3) ZLI 1695: Available from E. Merck Co, Darmstadt, W. Germany;
(§4) FBCO Ester: Host 12 of UK application No. 8205153.
(§5) (iv) In Table V "S" means order parameter and "Sol" means solubility (wt %) in the appropriate liquid crystal material.

[2] = Solubility (wt %) of the dye in liquid crystal material; conditions: for Solubility: liquid crystal material E 43, 20° C.
Procedure: as §1, §2, §3, §4, §5

[3] = Stability to irradiation with 1 kW phosphor-coated mercury vapour lamp; conditions: E 43, 1 kW mercury vapour lamp, 30° C.
Procedure: as §1
(ii) Stabilities were measured as the percentage decrease in absorption at the absorption maximum after the indicated period of irradiation with a 1 kW phosphor-coated, mercury vapour lamp at 30° C.

Extinction coefficient = assay: Extinction coefficient
[4] = liquid crystal material FBCO Ester, 20° C.
[5] = liquid crystal material ZLI 1132, 20° C.
[6] = liquid crystal material ZLI 1695, 20° C.

Row | Order Parameter (S) [1] | Solubility [2] | Structure (SMILES) | other results
1 | 0.77 | 8.0 wt % | CCCCCc1cc(N)c2c(c1O)C(=O)c1c(O)c(CCCCC)cc(N)c1C2=O [Example 1c, 2,7-Di-n-pentyl-4,5-diamino-chrysazin] | Stability (percentage decrease in absorption at the absorption maximum) ([3]; 100 hr irradiation): 97%; Stability (percentage decrease in absorption at the absorption maximum) ([3]; 2000 hr irradiation): 73%; S (order parameter) [1, 4]: 0.69; S (order parameter) [1, 5]: 0.77; S (order parameter) [1, 6]: 0.79; Sol (solubility) [2, 4]: 3 wt %; Sol (solubility) [2, 5]: 10.0 wt %; Sol (solubility) [2, 6]: 6.5 wt %
2 | 0.78 | 5.5 wt % | CCCCCCCc1cc(N)c2c(c1O)C(=O)c1c(O)c(CCCCCCC)cc(N)c1C2=O [Example 2c, 2,7-Di-n-heptyl-4,5-diaminochrysazin] | Stability (percentage decrease in absorption at the absorption maximum) ([3]; 400 hr irradiation): 92%; Stability (percentage decrease in absorption at the absorption maximum) ([3]; 2000 hr irradiation): 87%; S (order parameter) [1, 4]: 0.70; S (order parameter) [1, 5]: 0.78; S (order parameter) [1, 6]: 0.80; Sol (solubility) [2, 4]: 3 wt %; Sol (solubility) [2, 5]: 7.0 wt %
3 | 0.68 | 0.5 wt % | CCCCCCCc1cc(N)c2c(c1O)C(=O)c1c(O)c(CCCCCCC)cc(NC)c1C2=O [Example 5b, 2,7-di-n-heptyl-4-amino-5-methylaminochrysazin] | extinction coefficient (Extinction coefficient; at 675 nm): 19,522
4 | 0.67 | 0.5 wt % | CCCCCCCc1cc(NC)c2c(c1O)C(=O)c1c(O)c(CCCCCCC)cc(NC)c1C2=O [Example 5c, 2,7-di-n-heptyl-4,5-di(methylamino)chrysazin] | extinction coefficient (Extinction coefficient; at 575 nm): 22,100
5 | 0.72 | 3.3 wt % | CCCCCc1cc(N)c2c(c1O)C(=O)c1c(O)c(CCCCC)cc(NC)c1C2=O [Example 6b] | extinction coefficient (Extinction coefficient; at 675 nm): 23,785
6 | 0.66 | 0.9 wt % | CCCCCc1cc(NC)c2c(c1O)C(=O)c1c(O)c(CCCCC)cc(NC)c1C2=O [Example 6c] | –

More lines, now with the values behind:

Row | Structure (SMILES) | Order Parameter (S) [1] | Solubility [2] | other results
7 | CC(CCCc1cc(N)c2c(c1O)C(=O)c1c(O)c(CCCC(C)CC(C)(C)C)cc(N)c1C2=O)CC(C)(C)C (centres unmarked) [--C2 H4 CH(CH3)CH2 C(CH3)3, reference compound] | 0.71 | 1.6 wt % | –
8 | CCC(CC)Cc1cc(N)c2c(c1O)C(=O)c1c(O)c(CC(CC)CC)cc(N)c1C2=O [--CH(C2 H5)2] | 0.66 | – | –
9 | CCC(C)Cc1cc(N)c2c(c1O)C(=O)c1c(O)c(CC(C)CC)cc(N)c1C2=O (centres unmarked) [--CH(CH3)CH2 CH3] | 0.68 | – | –
10 | CCCCCCc1cc(N)c2c(c1O)C(=O)c1c(O)c(CCCCCC)cc(N)c1C2=O [Example 3, 2,7-Di-n-hexyl-4,5-diaminochrysazin] | 0.76 | 4.3 wt % | –
11 | CCCCCCCCc1cc(N)c2c(c1O)C(=O)c1c(O)c(CCCCCCCC)cc(N)c1C2=O [Example 4, 2,7-di-n-octyl-4,5-diaminochrysazin] | 0.73 | 13.0 wt % | –
12 | CNc1cc(CC(C)C)c(O)c2c1C(=O)c1c(NC)cc(CC(C)C)c(O)c1C2=O [iso-propyl, Comparative Dye, TABLE III] | 0.54 | – | –
13 | CNc1cc(CC(C)C)c(O)c2c1C(=O)c1c(N)cc(CC(C)C)c(O)c1C2=O [iso-propyl, Comparative Dye, TABLE II] | 0.63 | – | –
14 | CCCCCCCc1cc(N)c2c(c1O)C(=O)c1c(N)cc(CCCCCCC)c(O)c1C2=O [n-hexyl, Comparative Dyes (Formula B), reference compound] | – | < 0.01 wt % | –

— US4493785A, “Anthraquinone compounds” (Imperial Chemical Industries PLC, priority 1982, dated 1985)
